PubChem BioAssay AID540268 (Broad Institute, 2011)
“And” between values parts separate entries of the source, which are not always exact repeats. Identical values can stand only once. The source made the active and inactive calls. How the calls were made is not given here.

Experiment: reduced viability of parasite-Hsp90 expressing yeast – ATP luminescence, 48 h, cherry-picked samples, anti-malarial Hsp90 inhibitor project, dose response (AID 540268);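 on activity change, negative = inhibition: 0% = neutral control wells and -100% = positive control wells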
Settings: yeast expressing the parasite Hsp90, ATP luminescence

Structure (SMILES) | AC50
O=C(c1ccc2c(=O)n(C3CCCC3)c(=S)[nH]c2c1)N1CCc2ccccc21 | 6.25 µM
CC(Oc1ccc(Cl)cc1)C(=O)NNC(=S)NC(=O)c1ccco1 (stereo not drawn) | 1.94 µM
CCN(CC)C(=S)SSC(=S)N(CC)CC | 4.55 µM
O=C(Oc1c(Cl)cc(Cl)c2cccnc12)c1ccco1 | 0.696 µM
CCOc1ccc2nc(NC(=O)c3ccoc3C)sc2c1 | 6.99 µM
O=C1C2C3C=CC(CNS(=O)(=O)c4ccccc4[N+](=O)[O-])(O3)C2C(=O)N1c1ccccc1 (stereo not drawn) | 10.3 µM
O=[N+]([O-])c1oc2ccc3ccccc3c2c1CCO | 2.06 µM
CC(C)N(CCC(=O)c1ccc2ccccc2c1)Cc1ccccc1 | 17.6 µM
Cc1ccc(NN2C(=O)C=C(c3ccc(Cl)cc3)C2=O)cc1 | < 0.195 µM
c1ccc(-c2ccc(C(c3ccccc3)n3ccnc3)cc2)cc1 (stereo not drawn) | 1.07 µM
COc1ccc(C(C[N+](=O)[O-])n2nc(C)cc2C)cc1 (stereo not drawn) | 0.365 µM
Cc1[nH]c(N=Nc2ccccc2)nc1N=Nc1ccccc1 | 4.41 µM
COc1ccc(C2=CC3=C(Br)C(=O)C(C)(OC(=O)C4CCCC4)C(=O)C3=CO2)cc1 (stereo not drawn) | 4.4 µM
CCCCCCCCCCOC(=O)Cn1c(COc2ccc(Cl)cc2)[n+](C)c2ccccc21 | 4.25 µM
COCC(=O)n1nc(NCc2ccc(OC)cc2)nc1NCc1ccc(OC)cc1 | 8.06 µM
O=C(OCn1ncc(Cl)c(Cl)c1=O)c1cccc(C(F)(F)F)c1 | 5.36 µM
O=C(c1ccc(Cl)cc1)N1CCN(c2ccc(F)cc2)CC1 | 4.47 µM
O=C(C=P(c1ccccc1)(c1ccccc1)c1ccccc1)c1ccccc1-c1ccccc1C(=O)C=P(c1ccccc1)(c1ccccc1)c1ccccc1 | 5.12 µM
COC(=O)c1ccc(N2C(=O)CC(N3CCC(O)(c4ccc(Br)cc4)CC3)C2=O)cc1 (stereo not drawn) | 3.37 µM
O=C(/C=C/c1cccc([N+](=O)[O-])c1)c1cccs1 | 2.63 µM
Cc1ccc(-c2onc3ccc(C(=O)/C=C/N(C)C)cc23)cc1 | 5.98 µM
O=C(N/N=C/c1sc2ccccc2c1O)c1cccc2ccccc12 | 17 µM
O=C(/C(=C/c1ccc(Cl)cc1)c1nc2ccccc2[nH]1)c1ccccc1 | 7.04 µM

Structure (SMILES) | AC50
CN1CCN(C(c2ccc(Cl)cc2)c2cc(Cl)c3cccnc3c2O)CC1 (stereo not drawn) | 0.615 µM
COc1ccc(C(=O)NC(=S)NNC(=O)c2cnccn2)cc1 | 2.98 µM
CCOC(=O)c1ccc(N2C(=O)CC(N3CCC(O)(c4ccc(Cl)cc4)CC3)C2=O)cc1 (stereo not drawn) | 4.04 µM
CC(C)N1CCN(c2ccc(OCC3COC(Cn4cncn4)(c4ccc(Cl)cc4Cl)O3)cc2)CC1 (stereo not drawn) | 1.12 µM
COc1ccc(S(=O)(=O)NC2CC3CCC2C3)cc1Br (stereo not drawn) | 3.52 µM
Cc1cccc(N2C(=O)C=CC2=O)c1 | 0.372 µM
CC(C)=CCc1c2c(c3occ(-c4ccc(O)c(O)c4)c(=O)c3c1O)C=CC(C)(C)O2 | 8.75 µM
O=C1C2(Cl)C3(Cl)C4(Cl)C(Cl)(Cl)C5(Cl)C3(Cl)C1(Cl)C5(Cl)C24Cl (stereo not drawn) | 2.93 µM
Cc1cccc(N2C(=O)/C(=C\c3ccc(OC(F)F)cc3)c3ccccc3C2=O)c1 | 4.64 µM
CC1=C(C)/C(=N\OS(=O)(=O)c2ccc(C)cc2)C=CC1=O | 1.22 µM
CC(C)C1Nc2c(O)cc(Cl)c([N+](=O)[O-])c2C2C=CCC21 (stereo not drawn) | 6.63 µM
N#C/C(=C\c1cccc(Oc2ccccc2)c1)C(=O)N1CCOCC1 | 8.86 µM
Oc1ccccc1C1=NN(c2ccccc2)C(c2ccccc2)C1 (stereo not drawn) | 4.3 µM
CC(NNC(=S)N1CCN(c2ccccn2)CC1)c1nccc2ccccc12 (stereo not drawn) | 2.74 µM
CC(C)(C)C(=O)NC(=S)NNC(=O)c1sc2ccccc2c1Cl | 7.72 µM
CCCCCCCCCCCCCCCC[n+]1ccc(C(N)=O)cc1 | 7.6 µM
O=C(/C=C/c1ccccc1[N+](=O)[O-])c1ccccc1Br | 3.2 µM
CCCCC(=O)NC(c1ccc(Cl)cc1)c1ccc2cccnc2c1O (stereo not drawn) | 16.4 µM
Cc1ccc(S(=O)(=O)Nc2cc(Cl)c(O)c3ncccc23)cc1 | 2.09 µM
Cc1ccc(C(=O)OCn2ncc(Cl)c(Cl)c2=O)cc1 | 3.23 µM
Cc1ccc(C(=O)ONC(=O)c2ccc(Cl)cc2)cc1[N+](=O)[O-] | 0.387 µM
O=C(OCc1ccccc1)c1ccc(NCc2cc(O)ccc2O)cc1 | 5.09 µM
O=C(O)CC/C(=N/Nc1ccc([N+](=O)[O-])cc1)C(=O)O | 2.22 µM

Structure (SMILES) | AC50
CCCCCCCCCCC[N+](C)(C)CC/C=C1/c2ccccc2Sc2ccc(Cl)cc21 | 7.99 µM
CCN1/C(=C/c2ccc3cc(C)ccc3[n+]2CC)Sc2ccccc21 | 8.11 µM
Cc1sc(NC(=O)c2ccco2)c(C(c2cccnc2)N2CCC(C)CC2)c1C (stereo not drawn) | 7.74 µM
CC1=CC(=O)C(C(C)C)=C/C1=N/OS(=O)(=O)c1ccccc1 | 3.09 µM
O=C(C=Cc1ccccn1)c1ccccc1O | 3 µM
Cc1ccccc1CS(=O)(=O)c1nnc([C@H](Cc2ccccc2)NC(=O)OC(C)(C)C)o1 | 17.1 µM
Cc1ccc(-c2nc3cccnc3s2)cc1NS(=O)(=O)c1ccc2c(c1)OCCO2 | 4.12 µM
COc1ccc(/C=C2/CCC(CN3CCOCC3)C2=O)cc1 (stereo not drawn) | 0.751 µM
CC1CCCCC1NC(=O)/C(C#N)=C/c1ccccc1F (stereo not drawn) | 0.87 µM
O=C(CCSc1nnc(-c2ccncc2)o1)Nc1ccc(Cl)cc1 | 2.87 µM
COc1cc2cc(C(=O)N3CC(COS(C)(=O)=O)c4ccc(O)cc43)[nH]c2c(OC)c1OC (stereo not drawn) | 1.55 µM
Cc1cc(N2C(=O)C=CC2=O)c([N+](=O)[O-])cc1C | 1.18 µM
O=C(Nc1nc(-c2ccccc2)c(-c2ccccc2)o1)c1ccc(F)cc1 | 8.21 µM
Cn1cncc1C#Cc1c(-c2ccsc2)sc2ccccc12 | 7.55 µM
CCCCCCCCCCCCCCCC[n+]1ccccc1 | 4.03 µM and 3.43 µM
N/C(Cc1ccc(Cl)cc1)=N\OC(=O)c1cccc2ccccc12 | 2.19 µM
O=C(/C=C/c1ccc(Cl)c([N+](=O)[O-])c1)c1cccnc1 | 0.806 µM
CC(=NNC(=S)N1CCC1)c1ccccn1 | 1.72 µM
O=C1C=CC(=O)C2C1C1(Cl)C(Cl)=C(Cl)C2(Cl)C1(Cl)Cl (stereo not drawn) | 8.65 µM
O=[N+]([O-])c1cc(/C=N/O)ccc1Oc1ccccc1Cl | 2.86 µM
CC1=NOC(=O)/C1=C/c1ccc(-c2ccc(Cl)cc2)o1 | 2.43 µM
O=[N+]([O-])c1ccc(Sc2cccc[n+]2[O-])c2nonc12 | 6.88 µM
COc1ccc(NC(=O)/C(Cl)=C(/Cl)S(=O)Cc2ccc(Cl)cc2)cn1 (stereo not drawn) | 0.837 µM

Structure (SMILES) | AC50
Cc1cc2cc(CNC(=O)c3ccc(C)c([N+](=O)[O-])c3)ccc2[nH]1 | 8.29 µM
CCCCCCCCCCOC(=O)Cn1c(COc2ccc(OC)cc2)[n+](C)c2ccccc21 | 24.4 µM
O=C(Nc1nc(-c2ccccn2)cs1)c1ncc(Cl)c(Cl)c1Cl | 2.9 µM
O=C(O)/C=C/c1cn(-c2ccccc2)nc1-c1cc2ccccc2o1 | 16 µM
COc1ccc(S(=O)(=O)NC2CC3CCC2C3)cc1Cl (stereo not drawn) | 1.56 µM
Clc1ccc(CSC(Cn2ccnc2)c2ccc(Cl)cc2Cl)cc1 (stereo not drawn) | 0.576 µM
COc1ccc(NC(=O)c2sc3ncnc(N4CCN(c5ccccn5)CC4)c3c2C)cc1Cl | 3.46 µM
CCOC(=O)c1cc2cc(OCc3ccccc3)ccc2nc1C | 2.97 µM
COc1cc2c(cc1/C=C/[N+](=O)[O-])OCO2 | 3.11 µM
Cc1cccc(/C=C/C(=O)c2ccc([N+](=O)[O-])o2)c1 | 1.56 µM
C[C@@]12C(=O)Nc3ccc(Br)cc3C(=O)N1[C@H]1c3ccccc3OC[C@@H]1[C@@H]2c1ccccc1 | 0.404 µM
Cc1ccc(-n2nnnc2C(Cl)(Cl)c2nnnn2-c2ccc(C)cc2)cc1 | 1.12 µM
COc1ccc2c(c1)C=C(C(=O)NCc1ccc(Cl)cc1)CO2 | 4.21 µM
CC1=CN2C(=N)/C(=C/c3ccc([N+](=O)[O-])o3)C(=O)N=C2S1 | 1.34 µM
O=[N+]([O-])c1ccc(S(=O)Cc2ccccc2)c([N+](=O)[O-])c1 (stereo not drawn) | 2.55 µM
CC(C)(C)C1C/C(=C/c2ccccn2)C(=O)/C(=C/c2ccccn2)C1 (stereo not drawn) | 8.29 µM
CC(C)(C)SCCNC(=O)c1ccc(Cl)c([N+](=O)[O-])c1 | 4.37 µM
O=C(OCC(=O)c1c[nH]c2ccccc12)c1ccc([N+](=O)[O-])s1 | 4.09 µM
Cc1cc([N+](=O)[O-])c2ccccc2[n+]1[O-] | < 0.195 µM
COc1cc(N=Nc2ccc3ccccc3c2)ccc1O | 8.61 µM
COc1cccc(N=Nc2ccc3cccnc3c2O)c1 | 2.39 µM
Oc1c(CN2CCN(c3ccc(F)cc3)CC2)cc(Cl)c2cccnc12 | < 0.195 µM
CCCc1ccc(Oc2cn[nH]c2-c2ccc(O)c(C)c2O)cc1 | 0.408 µM

Structure (SMILES) | AC50
O=[N+]([O-])c1ccc(N=Nc2c(Cl)cc(O)cc2Cl)cc1 | 0.401 µM
O=S(=O)(NC1CC2CCC1C2)c1ccc(Cl)cc1 (stereo not drawn) | 3.46 µM
O=c1cc(-c2ccc(C3CCCCC3)cc2)[nH][nH]1 | 7.7 µM
CCCCCCCCOC(=O)c1cc([N+](=O)[O-])c(Sc2ncnc3nc[nH]c23)c([N+](=O)[O-])c1 | 1.4 µM
COc1cccc(/C=N/Nc2ncc(C(F)(F)F)cc2Cl)c1O | 4.33 µM
CN1CCc2nc3sc(C(=O)C45CC6CC(CC(C6)C4)C5)c(N)c3cc2C1 | 0.502 µM
O=C(OCC(=O)N1CCN(C(=O)c2ccco2)CC1)c1cc(-c2cccc(Br)c2)nc2ccccc12 | 4.39 µM
Oc1ccc2ccccc2c1N=Nc1ccccn1 | 2.66 µM
Cc1ccccc1Oc1cc(-n2ncc(Cl)c(Cl)c2=O)ncn1 | 1.11 µM
Oc1c(Cl)cccc1Cc1cc(Cl)cc(Cl)c1O | 0.618 µM
COc1cc(/C=C2\SC(=S)N(Nc3ncc(C(F)(F)F)cc3Cl)C2=O)ccc1O | 25.8 µM
COc1ccc2c(c1)[C@H]1[C@H](CO2)[C@H](c2ccccc2)[C@]2(C)C(=O)Nc3ccc(Cl)cc3C(=O)N12 | 1.8 µM
N/C(Cc1ccc(Cl)cc1Cl)=N\OC(=O)c1ccc(Br)o1 | 4.14 µM
Nc1ccccc1C#CC(=O)c1ccccc1 | 7.65 µM
O=C1C=CC2(O[C@H](c3ccccc3)[C@@H](c3ccccc3)O2)[C@H](Sc2ccccc2O)C1 | 3.46 µM
COc1cccc(/C=N/Nc2ncnc3scc(-c4ccccc4)c23)c1O | 15.3 µM
CCCC(=O)NC1=C(Cl)C(=O)c2ccccc2C1=O | < 0.195 µM
CCCCCCC(Cl)(Cn1ccnc1)c1ccccc1 (stereo not drawn) | 8.41 µM
CCCCCCCCNC(=O)/C(C#N)=C/c1ccccc1[N+](=O)[O-] | 4.69 µM

Same assay, conditions: yeast expressing the parasite Hsp90, ATP luminescence, at 26 µM (top of the series)

Structure (SMILES) | activity change, negative = inhibition
Cc1ccc(-c2cc(-c3ccc(F)cc3)c(C#N)c(N)n2)o1 | 19.7% (inactive)
N/C(Cc1ccc(Cl)c(Cl)c1)=N\OC(=O)c1ccc(Br)o1 | 66.7% (inactive)
